From patent US9303057B2, “Methods and reagents for analyzing riboswitches using FRET” (CORNELL UNIVERSITY, priority 2011, dated 2016)

Columns and labels:
SAM-II riboswitch [1] = assay: smFRET imaging of pseudoknot formation of surface-immobilized Cy3/Cy5-labeled riboswitch; type: binding, Sargasso Sea metagenome
Method: To reveal the underlying dynamics of SAM-II pseudoknot formation, single-molecule FRET (smFRET) (Aleman 2008; Lemay 2006; Brenner 2010) investigations were performed using the same labeling strategy as in Example 2 (i.e., A14^Cy3U and G52^Cy5U). To enable surface immobilization of the SAM-II riboswitch within a passivated microfluidic device and extended observation periods, a 5′-biotin moiety was included in the design (FIG. 2, FIG. 3).
smFRET data were acquired using a prism-based total internal reflection (TIR) microscope, where the biotinylated SAM-II riboswitch was surface immobilized within PEG-passivated, strepatividin-coated quartz microfluidic devices (Munro 2007). The Cy3 fluorophore was directly illuminated under 1.5 kW/cm^2 intensity at 532 nm (Laser Quantum). Photons emitted from both Cy3 and Cy5 were collected using a 1.2 NA 60× Plan-APO water-immersion objective (Nikon), where optical treatments were used to spatially separate Cy3 and Cy5 frequencies onto two, synchronized EMCCD devices (Evolve 512, Photometrics). Fluorescence data were acquired using MetaMorph acquisition software (Universal Imaging Corporation) at a rate of 66.7 frames per second (15 ms integration). Fluorescence trajectories were selected from the movie files for analysis using automated image analysis software coded in Matlab (The MathWorks). Fluorescence trajectories were selected based on the following criteria: a single catastrophic photobleaching event, at least 6:1 signal-to-background noise ratio (SNR) calculated from the total fluorescence intensity, and a FRET lifetime of at least 30 frames (450 ms) in any FRET state ≧0.15. smFRET trajectories were calculated from the acquired fluorescence data using the formula FRET=ICy5/(ICy3+ICy5), where ICy3 and ICy5 represent the Cy3 and Cy5 fluorescence intensities, respectively. Equilibrium smFRET experiments were performed in 50 mM KMOPS, 100 mM KCl, pH 7.5 buffer in the presence of an optimized oxygen scavenging and triplet state quenching cocktail in the presence of an oxygen scavenging environment (1 unit protocatchuate-3,4-dioxygenase, 2 mM protocatechuic acid; 1 mM Trolox, 1 mM cyclooctatetraene, 1 mM nitrobenzyl-alcohol) (Dave 2009). Concentrations of MgCl2 and SAM were as specified in the figure captions. […]
As previously described, the emission intensities of both Cy3 and Cy5 fluorophores were tracked simultaneously for individual surface-immobilized molecules using a wide-field, prism-based total internal reflection configuration, with a single-frequency light source (532 nm) (Munro 2007). […] The dynamic behaviors of individual molecules were assessed using hidden Markov modeling (HMM) procedures, and ensemble information was obtained by assembling single-molecule FRET trajectories into population FRET histograms. […]

SAM-II riboswitch [2] = assay: Bulk FRET detection of pseudoknot formation (steady-state fluorescence of Cy3/Cy5-labeled riboswitch); type: binding, Sargasso Sea metagenome
Method: FIG. 2 illustrates the construction of a Cy3/Cy5-labeled SAM-II construct sensitive to pseudoknot formation. (a) The strategy for synthesis, labeling and enzymatic ligation is shown, with the chemical structures of fluorophores and linkers provided in FIG. 3. (b) Anion-exchange (AE) HPLC trace of enzymatic ligation using T4 DNA ligase and a DNA splint at the start (0 h) and after completion (9 h). The product (retention time=37.3 min) was purified by AE-HPLC. (c) LC-ESI mass spectrum of purified ligation product. (d) Fluorescence emission response of the acceptor dye in the Cy5/Cy3 labeled SAM-II construct upon consecutive Mg^2+ and SAM addition under conditions where cRNA=0.5 μM, cSAM=5.0 μM, cmg=2.0 mM, 50 mM KMOPS, 100 mM KCl, 20° C., pH 7.5; λex=540 nm, λem=665 nm.
All experiments were measured on a Cary Eclipse spectrometer (Varian, Palo Alto, USA) equipped with a peltier block, a magnetic stirring device, and a RX2000 stopped-flow apparatus (Applied Photophysics Ltd., Leatherhead, UK).
Based on the reported structure of the SAM-II riboswitch (Gilbert 2008), an acceptor (Cy5) fluorophore was attached to the non-conserved nucleoside at position 14, and a donor (Cy3) fluorophore at the unpaired terminal residue at position 52 (FIG. 1a). […]

| Structure (SMILES) | increase of the absolute value of the low-FRET state (SAM-II riboswitch [1]; 2 mM Mg2+, no SAM) | stabilization of the high-FRET state (SAM-II riboswitch [1]; 2 mM Mg2+, no SAM) | average dwell time in the high-FRET state (SAM-II riboswitch [1]; 2 mM Mg2+ and 10 μM SAM) | stabilization of the high-FRET state (SAM-II riboswitch [1]; 2 mM Mg2+ and 10 μM SAM) [fold] | observed rate of increase of acceptor fluorescence emission (single exponential) (SAM-II riboswitch [2]; 6 equivalents of SAM, Cy3/Cy5-labeled riboswitch, cRNA=0.5 μM, 2.0 mM Mg2+, 20° C., pH 7.5) | fluorescence emission from the acceptor fluorophore achieved via FRET (SAM-II riboswitch [2]; addition of 10 equivalents of SAM) |
| --- | --- | --- | --- | --- | --- | --- |
| [Cl-].[Cl-].[Mg+2] [Mg^2+] | 0.08 | approximately 10 fold | – | – | – | – |
| C[S+](CC[C@H](N)C(=O)O)C[C@H]1O[C@@H](n2cnc3c(N)ncnc32)[C@H](O)[C@@H]1O (stereo partly drawn) [SAM, S-adenosylmethionine] | – | – | approximately one | ~10 | 1.19±0.06×10^−2 s^−1 | dramatically increase in intensity |
